# Changes are numbered by the printed parent chain. pKi: −log10 of the molar value.
# Assays:
# muskarinen Rezeptoren = experiment: Receptor binding studies (Tabelle A), radioligand displacement; settings: Radioligand L(+)cis-[2-Methyl-³H]-N,N,N-trimethyl-1, 3-dioxolan-4-methanammonium-jodid; Organ: Cerebraler Cortex (Ratte)
# From the text: Die zur Synthese notwendigen Ausgangsverbindungen, die entsprechenden Hydroxyazabicycloalkane, sind aus dem Stand der Technik bekannt, [drawing 9] so z.B. für n = O aus JACS 74, 2215 (1952) (IIa), J. Org. Chem. 33, 4376 (1968) (IIb), der europäischen Patentanmeldung 307 140 (III) und J. Pharm. Science 52, 331 (1954) (IV). Ausgangsverbindungen (R = H), in denen n = 1 oder 2 bedeutet, sind durch Reduktion der entsprechenden Alkylester (X -R = COOAlkyl) erhältlich. Ausgehend von den entsprechenden Ketonen lassen sich die Thiole der allgemeinen Formeln II und III in Analogie zu dem in J. Chem. 43, 1965 beschriebenen Verfahren herstellen. Ist R in der allgemeinen Formel I ein aromatischer oder heteroaromatischer Rest, so können die Verbindungen der allgemeinen Formel I unter Anwendung der Mitsunobu Reaktion (O. Mitusunobu in Synthesis, 1, 1981, Georg Thieme Verlag, Stuttgart; J. C. S. Perkin I, Seite 462, 1975) durch Umsetzung der entsprechenden hydroxysubstituierten Reaktanden (Formel I R=H, Reagenz HOR, R=Phenyl,Heterocyclus) in Gegenwart von Azodicarbonsäurediethylester und Triphenylphospin erhalten werden. Die Umsetzung erfolgt im allgemeinen in inerten organischen Lösungsmitteln bei Raumtemperatur. Die Verbindungen der allgemeinen Formel I besitzen wertvolle pharmakologische Eigenschaften. So zeigen die Verbindungen in Bindungsstudien Affinitäten zu muskarinen Rezeptoren und muskarin-agonistische GTP-Shifts (GTP = Guanosintriphosphat). (Birdsall, N.I.M., E.C. Hulme and I.M. Stockton 1984 in T.I.P.S. Supplement, Proc. Internat. Symposium on Subtypes of Muscarinic Receptors, Ed. Hirschowitz, Hammer, Giacchetti, Klirns, Levine; Elsevier p. 4 - 8).
# Die Rezeptorbindungsstudien wurden gemäß dem nachstehenden Literaturzitat ausgeführt [A. Closse, H. Bittiger, D. Langenegger und A. Wahner; Naunyn-Schmiedeberg's Arch. Pharmacol. 335, 372 - 377 (1987)].
# Radioligand: L(+)cis-[2-Methyl-³H]-N,N,N-trimethyl-1, 3-dioxolan-4-methanammonium-jodid NET-647, Fa. NEN (New England Nuclear DU PONT). Organ: Cerebraler Cortex (Ratte)
# Muskarinsubtypen M₂ = target: T1, Muskarinsubtypen M₂ (Rattus norvegicus, UniProt P10980); experiment: Binding studies at muscarinic subtypes; design: species or system Ratte; settings: gegenüber dem Razemat und dem (-)-Enantiomer
# T1 sequence (P10980 1-466): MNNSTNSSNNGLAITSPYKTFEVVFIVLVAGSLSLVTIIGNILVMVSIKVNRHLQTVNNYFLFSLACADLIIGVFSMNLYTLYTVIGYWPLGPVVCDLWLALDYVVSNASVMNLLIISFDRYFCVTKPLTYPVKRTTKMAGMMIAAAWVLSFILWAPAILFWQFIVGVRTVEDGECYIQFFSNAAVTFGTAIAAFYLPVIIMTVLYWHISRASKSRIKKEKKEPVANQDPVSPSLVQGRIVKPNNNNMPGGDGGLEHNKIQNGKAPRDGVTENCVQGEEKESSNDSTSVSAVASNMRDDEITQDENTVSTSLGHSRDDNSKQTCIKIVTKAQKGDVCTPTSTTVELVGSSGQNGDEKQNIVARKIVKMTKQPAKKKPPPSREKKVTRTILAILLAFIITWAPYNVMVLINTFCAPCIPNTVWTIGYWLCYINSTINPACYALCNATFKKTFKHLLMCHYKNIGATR
# Muskarinsubtypen M₁ = target: T2, Muskarinsubtypen M₁ (Rattus norvegicus, UniProt P08482); experiment: Binding studies at muscarinic subtypes; design: species or system Ratte; settings: gegenüber dem Razemat und dem (-)-Enantiomer
# T2 sequence (P08482 1-460): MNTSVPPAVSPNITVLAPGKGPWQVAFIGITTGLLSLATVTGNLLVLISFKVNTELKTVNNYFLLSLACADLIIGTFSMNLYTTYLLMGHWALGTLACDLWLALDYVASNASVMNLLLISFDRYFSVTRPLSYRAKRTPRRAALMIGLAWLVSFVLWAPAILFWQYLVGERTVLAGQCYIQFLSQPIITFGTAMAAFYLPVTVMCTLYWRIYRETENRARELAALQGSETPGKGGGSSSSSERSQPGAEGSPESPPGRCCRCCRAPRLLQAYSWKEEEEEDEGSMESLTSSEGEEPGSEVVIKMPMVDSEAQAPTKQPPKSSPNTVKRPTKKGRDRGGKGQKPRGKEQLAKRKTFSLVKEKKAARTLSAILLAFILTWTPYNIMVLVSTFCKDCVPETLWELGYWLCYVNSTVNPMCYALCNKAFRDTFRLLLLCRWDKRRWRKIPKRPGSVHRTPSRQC
# Muskarinsubtypen M₃ = Muskarinsubtypen M₃ (Rattus norvegicus, UniProt P08483); experiment: Binding studies at muscarinic subtypes; design: species or system Ratte; settings: gegenüber dem Razemat und dem (-)-Enantiomer
# Muskarinsubtypen M₃, sequence (P08483 whole entry): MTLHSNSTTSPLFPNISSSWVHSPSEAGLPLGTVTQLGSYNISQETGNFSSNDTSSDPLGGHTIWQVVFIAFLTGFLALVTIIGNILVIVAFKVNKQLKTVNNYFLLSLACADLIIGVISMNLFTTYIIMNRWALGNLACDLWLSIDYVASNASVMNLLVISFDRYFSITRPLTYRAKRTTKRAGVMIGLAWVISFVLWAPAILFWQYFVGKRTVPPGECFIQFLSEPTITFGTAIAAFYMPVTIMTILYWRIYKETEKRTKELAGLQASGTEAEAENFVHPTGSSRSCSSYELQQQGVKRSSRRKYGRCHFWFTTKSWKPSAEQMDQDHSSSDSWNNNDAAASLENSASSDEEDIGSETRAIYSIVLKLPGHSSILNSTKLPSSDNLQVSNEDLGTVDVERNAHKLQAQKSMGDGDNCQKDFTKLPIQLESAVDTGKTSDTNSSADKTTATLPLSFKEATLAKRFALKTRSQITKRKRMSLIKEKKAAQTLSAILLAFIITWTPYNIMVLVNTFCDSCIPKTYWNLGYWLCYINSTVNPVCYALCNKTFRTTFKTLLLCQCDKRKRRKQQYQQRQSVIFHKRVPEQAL
# Kaninchen = experiment: Cholinomimetic in vivo activity by EEG (theta wave increase)
# From the text: Die cholinomimetische in-vivo-Wirksamkeit von (+)-(Propargyloxymethyl)-1-aza-bicyclo- [2.2.2]octan wurde am Kaninchen mittels EEG (Thetawellenzunahme) nachgewiesen.
# human-m₁-Rezeptorsubtyp = target: T3, human-m₁-Rezeptorsubtyp (Homo sapiens, UniProt P11229); experiment: Stimulation of phosphatidylinositol turnover in CHO cell cultures; type: cell-based; settings: CHO-Zellkulturen mit human-m₁-Rezeptorsubtyp; gegenüber dem Razemat und dem (-)-Enantiomer
# T3 construct: expressed in transfected cells; host or cells: CHO cells
# T3 sequence (P11229 1-460): T2 sequence (P08482 1-460) with V5A, S254T, S309P, K320R, G337A, V413I
structure (smiles),measurement,setting,value
c1cncc(OC2CN3CCC2CC3)c1 (centres unmarked) [Beispiel 1],pKi,muskarinen Rezeptoren,6.92
"c1ccc(OC2CN3CCC2CC3)cc1 (centres unmarked) [Beispiel 9, 3-Phenoxy-1-azabicyclo[2.2.2]octan]",pKi,muskarinen Rezeptoren,7.05
c1ccc(COC2CN3CCC2CC3)cc1 (racemic) [Beispiel 4],pKi,muskarinen Rezeptoren,6.64
"C#CCOCC1CN2CCC1CC2 (single isomer, unassigned; (+)) [(+)-3-(Propargyloxymethyl)-1-azabicyclo[2.2.2]octan]",Bindungsstudien M₂: Wirksamkeit in vitro,Muskarinsubtypen M₂,stärker wirksam
same,Bindungsstudien M₁: Wirksamkeit in vitro,Muskarinsubtypen M₁,stärker wirksam
same,Bindungsstudien M₃: Wirksamkeit in vitro,Muskarinsubtypen M₃,stärker wirksam
same,cholinomimetische in-vivo-Wirksamkeit (Thetawellenzunahme),Kaninchen,nachgewiesen
same,Stimulation des Phosphatidylinositol-turnovers,human-m₁-Rezeptorsubtyp,stärker wirksam

# From patent EP0458214A1, “Bicyclic 1-azacycloalcanes” (BOEHRINGER INGELHEIM KG, priority 1990, dated 1991)
